Test results as given in US20180237774A1, “METHODS OF SCREENING FOR RIBOSWITCHES AND ATTENUATORS” (priority 2015, published 2018).
In brackets after ≈: the same amount, converted by molar mass. Positions of bridges follow the written chain, without caps; N, C: chain ends. Non-standard residues stand in square brackets, D forms with d. Residues, ends and D or L forms follow the SMILES beside them. *: point of attachment. Ileψ(thiazoline)Cys = CC[C@H](C)[C@H](N)C1=N[C@H](C(=O)*)CS1; dOrn = NCCC[C@@H](N)C(=O)O

Experiments:
L. monocytogenes Wt = test: Minimal inhibitory concentration (MIC) determination in broth; assay type: cell-based; conditions: Listeria monocytogenes, 48 h, BHI, two days at 37° C.
Experimental: (§1) The MIC was determined in broth culturing conditions in the presence of serially diluted antibiotic concentrations. Briefly, the bacterial strains were grown O.N. at 37° C. in BHI agarose plates and 1-3 single colonies were collected into 1 ml of BHI broth. The OD600 was adjusted to 0.01 and then diluted 1:10 into a 96-well plate containing a final volume of 200 μl BHI supplemented with two-fold serial dilutions of lincomycin, erythromycin and chloramphenicol.

[1] = system: lmo1652 regulatory element (rli59); test: Antibiotic-dependent transcriptional readthrough by term-seq and RNA-seq; assay type: cell-based, L. monocytogenes
Experimental: (§2) A sublethal concentration for the antibiotics lincomycin, erythromycin, chloramphenicol, kanamycin, ofloxacin, ampicilin and bacitracin (Sigma) was determined for each of the organisms used in this study as follows. Bacterial cultures were propagated in LB or BHI O.N. in triplicates and diluted 1:200 into fresh media. Cultures were grown to early exponential phase (OD600=0.1-0.2) and then supplemented with serially diluted antibiotics stocks. The growth rate was dynamically monitored in intervals of 10-15 min using a 96 well plate format OD reader (Infinite M200 Tecan) for a period of at least 4 hours. […] To identify antibiotic-responsive regulators, bacteria were grown in LB or BHI in triplicates as described above and, upon reaching early exponential phase, 5 ml cultures were independently exposed for 15 minutes to the sublethal concentration of each antibiotic as determined above. Bacteria were then collected by centrifugation, flash frozen and stored in −80° C. until RNA extraction.
(§3) Term-seq average coverage across triplicates was calculated for the premature termination site and the full length gene termination site with a span of 10 nt surrounding each terminator, and the fraction of full length (gene) terminations out of all termination events was used to as a measure of the transcriptional readthrough (FIG. 3A). In cases where the regulator controlled the transcription of a multi-gene operon, which contained internal TSSs in addition to the primary one, RNA-seq was used to determine readthrough in the first gene (FIGS. 4C and 4F). RNA-seq coverage was used to measure the median read coverage over either the regulatory element or the gene, and the ratio between the two (gene-coverage divided by regulator-coverage) was used as an estimate for the short/long transcript ratio generated by regulator activity (FIG. 3A).

L. monocytogenes = test: Sublethal antibiotic concentration determination (growth-rate monitoring); assay type: cell-based, Listeria monocytogenes EGDe; conditions: for Sublethal concentration (highest antibiotics concentration that did not cause growth-rate inhibition): Table 2; for Sublethal concentrations of antibiotics used in this study: Table 6
Experimental: as §2

B. subtilis = test: as above; assay type: cell-based, Bacillus subtilis str. 168; conditions: for Sublethal concentration (highest antibiotics concentration that did not cause growth-rate inhibition): Table 2; for Sublethal concentrations of antibiotics used in this study: Table 6
Experimental: as §2

E. faecalis = test: as above; assay type: cell-based, Enterococcus faecalis ATCC 29212; conditions: for Sublethal concentration (highest antibiotics concentration that did not cause growth-rate inhibition): Table 2; for Sublethal concentrations of antibiotics used in this study: Table 6
Experimental: as §2

[2] = system: L. monocytogenes uORF ATG > ACG; test: Minimal inhibitory concentration (MIC) determination in broth; assay type: cell-based; conditions: Listeria monocytogenes, 48 h
From the text: (§4) For mutant generation with pMAD-based plasmids^59, ˜600 nt regions of complementarity both upstream and downstream of a targeted region were either ordered as gBlocks (IDT) and amplified with gBlock-Up and Down oligonucleotides (Table 1) complimentary to uniform flanks on each gBlock corresponding to the 40 nts on either side of the pMAD multi-cloning site, or PCR amplified with Phusion High fidelity polymerase and reagents (Finnzymes, F-553) using genomic DNA as a template and then joined by a second splice overlap extension PCR reaction using the first two PCR products as template to generate a Upstream-Downstream (UD) PCR product (Table 1, lmo0919 deletion). PCR products were subsequently purified with QIAquick PCR purification columns (Qiagen, 28104), digested with the SalI and XmaI restriction enzymes (NEB), purified again as before, and ligated into SalI/XmaI digested pMAD plasmid for 1 hr at 25° C. with T4 DNA ligase (NEB, M0202S). 2 μl of each ligation were transformed into chemically competent E. coli Top10 (Invitrogen, C404003) cells according to the manufacturer's instructions. Transformants were screened by PCR and Sanger sequencing for the presence of the appropriate insert. Electrocompetent L. monocytogenes strains were transformed with the respective plasmid and mutagenesis carried out as described previously^59. Briefly, after transformation and plating onto selective BHI, 5 ug/ml erythromycin (Em) 80 ug/ml 5-bromo-4-chloro-3-indolyl-β-D-galactopyranoside (X-gal) plates, bacteria were grown at 30° C. for two days. A single blue colony was picked and transferred to liquid BHI broth and grown for an additional 6 hrs at 30° C. The colony was then diluted 1:1000 into 10 ml of BHI-Em and grown O.N. at 42° C., which prevents pMAD replication in the cytosol owing to a temperature sensitive ori. Serial dilutions were plated onto BHI-X-gal-Em plates and grown for two days at 42° C., and the process was reiterated several times until white colonies, in which the plasmid integrated into the genome, were recovered. Colonies were screened by colony PCR, and mutants were confirmed by Sanger sequencing.
as §1

[3] = system: L. monocytogenes ΔAnti-terminator; test: as above; assay type: cell-based; conditions: Listeria monocytogenes, 48 h
From the text: as §4, §1

[4] = system: L. monocytogenes ΔAnti-anti-terminator; test: as above; assay type: cell-based; conditions: Listeria monocytogenes, 48 h
From the text: as §4, §1

[5] = system: 3aa uORF of the lmo0919 ribo-regulator; test: Ribosome profiling (Ribo-seq) of ribosome occupancy over the lmo0919 ribo-regulator uORF; assay type: cell-based; conditions: L. monocytogenes; brief exposure to lincomycin versus control
Experimental: (§5) FIG. 14 is a graph illustrating lincomycin-dependent ribosome stalling in the lmo0919 ribo-regulator.
(§6) To characterize the effects of lincomycin on the interaction between the ribo-regulator and the ribosome levels of ribosome occupancy over the ribo-regulator in control and lincomycin-treated bacteria were measured using ribosome profiling (Ribo-seq) (23, 42). Strikingly, an ˜5 fold increase in ribosome occupancy over the 3aa uORFs in both L. monocytogenes and L. innocua was measured following brief exposure to lincomycin (FIG. 14) (23).

[6] = system: 3aa uORF of the lmo0919 ribo-regulator homolog; test: as above; assay type: cell-based; conditions: L. innocua; brief exposure to lincomycin versus control
Experimental: as §5, §6

[7] = system: lmo0919 5′UTR regulator (rli53); test: Antibiotic-dependent transcriptional readthrough by term-seq and RNA-seq; assay type: cell-based, L. monocytogenes; conditions: 15 minutes exposure to sublethal concentration
Experimental: as §2, §3

lmo0919 regulator = test: Lincomycin-dependent induction of lmo0919 in ErmC-expressing strain; assay type: cell-based, L. monocytogenes expressing ErmC; conditions: ErmC-expressing bacteria, ribosomes resistant to lincomycin
Experimental: FIG. 11 illustrates that the lmo0919 regulator senses ribosome inhibition. L. monocytogenes carrying the ErmC antibiotic resistance gene was assayed for lincomycin dependent induction. In the L. monocytogenes ErmC-expressing strain, in which ribosome are made immune to lincomycin via methylation of A2058 in the 23S rRNA, the lmo0919 regulator is unresponsive to the presence of the antibiotic (red).
The structural alterations in the lmo0919 ribo-regulator could either be mediated by direct binding of the antibiotic to the ribo-regulator (i.e., a riboswitch), or by attenuation, where the lincomycin-inhibited ribosomes stall on a uORF in the ribo-regulator, thus shifting the ribo-regulator structure from a “closed” to an “open” state. To differentiate between direct binding and ribosome-mediated regulation, lincomycin-dependent induction of lmo0919 in L. monocytogenes expressing the ErmC 23S rRNA methyltransferase was measured. In these bacteria the ribosomes are di-methylated at position A2058 of the 23S rRNA, rendering the ribosomes resistant to lincomycin.

[8] = system: L. monocytogenes Δlmo0919; test: Minimal inhibitory concentration (MIC) determination in broth; assay type: cell-based, Listeria monocytogenes; conditions: for MIC: Listeria monocytogenes, 48 h
From the text: as §4, with “Serial dilutions were plated onto BHI-X-gal-Em plates and grown for two days at 42° C., and the process was reiterated several times until white colonies, in which the plasmid integrated into the genome, were recovered. Colonies were screened by colony PCR, and mutants were confirmed by Sanger sequencing.” left out
The MIC was determined in broth culturing conditions in the presence of serially diluted antibiotic concentrations. […]

[9] = system: EF2720 regulatory element; test: Antibiotic-dependent transcriptional readthrough by term-seq and RNA-seq; assay type: cell-based, E. faecalis
Experimental: as §2
(§7) Term-seq average coverage across triplicates was calculated for the premature termination site and the full length gene termination site with a span of 10 nt surrounding each terminator, and the fraction of full length (gene) terminations out of all termination events was used to as a measure of the transcriptional readthrough (FIG. 3A). […]

[10] = system: msrC (EF1413) termination-based regulator; test: as above; assay type: cell-based, E. faecalis; conditions: upon exposure to the antibiotic
Experimental: as §2, §7

| SMILES | MIC (L. monocytogenes Wt) | Response of the lmo1652 regulatory element [1] | Sublethal concentration (highest antibiotics concentration that did not cause growth-rate inhibition) (L. monocytogenes) | Sublethal concentrations of antibiotics used in this study (L. monocytogenes) | Sublethal concentration (highest antibiotics concentration that did not cause growth-rate inhibition) (B. subtilis) | Sublethal concentrations of antibiotics used in this study (B. subtilis) | Sublethal concentration (highest antibiotics concentration that did not cause growth-rate inhibition) (E. faecalis) | Sublethal concentrations of antibiotics used in this study (E. faecalis) | MIC [2] | MIC [3] | MIC [4] | Increase in ribosome occupancy over the 3aa uORF [5] | Increase in ribosome occupancy over the 3aa uORF [6] | Activation of the lmo0919 5′UTR regulator (readthrough) [7] | Responsiveness of the lmo0919 regulator (lmo0919 regulator) | MIC [8] | Increase in sensitivity upon deletion of lmo0919 ([8]; Δlmo0919 versus wild type L. monocytogenes) | Response of the EF2720 regulatory element [9] | Response of msrC promoter and termination-based regulator [10] |
| --- | --- | --- | --- | --- | --- | --- | --- | --- | --- | --- | --- | --- | --- | --- | --- | --- | --- | --- | --- |
| O=C(N[C@H](CO)[C@H](O)c1ccc([N+](=O)[O-])cc1)C(Cl)Cl [Chloramphenicol] | 2 µg/mL (≈ 6.19 µM) | responds | 0.4 µg/mL | 0.4 µg/mL | 0.2 µg/mL | 0.2 µg/mL | 0.4 µg/mL | 0.4 µg/mL |  |  |  |  |  |  |  |  |  |  |  |
| NC[C@H]1O[C@H](O[C@H]2[C@H](O)[C@@H](O[C@H]3O[C@H](CO)[C@@H](O)[C@H](N)[C@H]3O)[C@H](N)C[C@@H]2N)[C@H](O)[C@@H](O)[C@@H]1O [Kanamycin] |  |  | 0.5 µg/mL | 0.5 µg/mL | 0.5 µg/mL | 0.5 µg/mL | 16 µg/mL | 16 µg/mL |  |  |  |  |  |  |  |  |  |  |  |
| CCC[C@@H]1C[C@@H](C(=O)N[C@@H]([C@H]2O[C@H](SC)[C@H](O)[C@@H](O)[C@H]2O)[C@@H](C)O)N(C)C1 [Lincomycin] | 1 µg/mL (≈ 2.46 µM) | responds | 0.25 µg/mL | 0.25 µg/mL | 0.5 µg/mL | 0.5 µg/mL | 2 µg/mL | 2 µg/mL | 0.25 µg/mL (≈ 0.615 µM) | 0.25 µg/mL (≈ 0.615 µM) | 8 µg/mL (≈ 19.7 µM) | ~5 fold | ~5 fold | specific activation | no longer responsive | 0.25 µg/mL (≈ 0.615 µM) | 4 fold | respond |  |
| CC1(C)S[C@@H]2[C@H](NC(=O)[C@H](N)c3ccccc3)C(=O)N2[C@H]1C(=O)O [Ampicillin] |  |  | 1 µg/mL | 1 µg/mL | 0.0625 µg/mL | 0.0625 µg/mL | 2 µg/mL | 2 µg/mL |  |  |  |  |  |  |  |  |  |  |  |
| CC[C@H]1OC(=O)[C@H](C)[C@@H](O[C@H]2C[C@@](C)(OC)[C@@H](O)[C@H](C)O2)[C@H](C)[C@@H](O[C@@H]2O[C@H](C)C[C@H](N(C)C)[C@H]2O)[C@](C)(O)C[C@@H](C)C(=O)[C@H](C)[C@@H](O)[C@]1(C)O [Erythromycin] | 0.0312 µg/mL (≈ 0.0426 µM) | responds | 0.03125 µg/mL | 0.03125 µg/mL | 0.01562 µg/mL | 0.01562 µg/mL | 0.5 µg/mL | 0.5 µg/mL | 0.0625 µg/mL (≈ 0.0852 µM) | 0.0625 µg/mL (≈ 0.0852 µM) | 0.0312 µg/mL (≈ 0.0426 µM) |  |  |  |  | 0.0625 µg/mL (≈ 0.0852 µM) |  |  | increase both the transcription initiation rate and readthrough into the gene |
| CC[C@H](C)[C@H](N)C1=N[C@H](C(=O)N[C@@H](CC(C)C)C(=O)N[C@H](CCC(=O)O)C(=O)N[C@H](C(=O)N[C@H]2CCCCNC(=O)[C@H](CC(N)=O)NC(=O)[C@@H](CC(=O)O)NC(=O)[C@H](Cc3cnc[nH]3)NC(=O)[C@@H](Cc3ccccc3)NC(=O)[C@H]([C@@H](C)CC)NC(=O)[C@@H](CCCN)NC2=O)[C@@H](C)CC)CS1 [Bacitracin] ({Ileψ(thiazoline)Cys}-L[dE]IK[dOrn]I[dF]H[dD]N; lactam 4-C) |  |  | 8 µg/mL | 8 µg/mL | 0.125 µg/mL | 0.125 µg/mL | 1 µg/mL | 1 µg/mL |  |  |  |  |  |  |  |  |  |  |  |
